Results taken from ChEMBL document CHEMBL1201862, “PubChem BioAssay data set” (2004).
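Each compound was tested at five concentrations against cells in 96-well plates for 48 hours. The concentration for 50% growth inhibition is given as GI50.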 Active and inactive are the calls of the source. Rule as the data show it: active = GI50 up to about 1.1 µM and inactive = higher.

Assays:
Test in all cases: DTP human tumour cell line panel, 48 h
[1] = test system: A498
[2] = test system: RPMI-8226
[3] = test system: HCT-116
[4] = test system: SNB-19
[5] = test system: UO-31
[6] = test system: UACC-257
[7] = test system: HOP-92
[8] = test system: SF-268
[9] = test system: SN12C
[10] = test system: NCI-H522
[11] = test system: U-251
[12] = test system: SK-OV-3
[13] = test system: EKVX
[14] = test system: HT-29
[15] = test system: RXF 393
[16] = test system: SK-MEL-28
[17] = test system: SF-539
[18] = test system: NCI-H226
[19] = test system: HL-60
[20] = test system: MOLT-4

Measured: GI50

Cc1ccc(C)c(NC(=O)C(=O)CC(=O)C2CCOC2=O)c1 (stereo unspecified)
inactive: [1] > 100 µM | [2] > 100 µM | [3] > 100 µM | [4] > 100 µM | [5] > 100 µM | [6] > 100 µM | [7] > 100 µM | [8] > 100 µM | [9] > 100 µM | [10] > 100 µM | [11] > 100 µM | [12] > 100 µM | [13] > 100 µM | [14] > 100 µM | [15] > 100 µM | [16] 28.5 µM | [17] > 100 µM | [18] > 100 µM | [19] > 100 µM

CNC(=O)N(CCC#N)CCN(C(=O)NC)c1ccccc1
inactive: [1] > 100 µM | [2] > 100 µM | [3] > 100 µM | [4] > 100 µM | [5] > 100 µM | [20] > 100 µM | [6] > 100 µM | [7] > 100 µM | [8] > 100 µM | [9] > 100 µM | [10] > 100 µM | [11] > 100 µM | [12] > 100 µM | [13] > 100 µM | [14] > 100 µM | [15] > 100 µM | [16] > 100 µM | [17] > 100 µM | [18] > 100 µM

Clc1ccc(CCn2cncn2)cc1
inactive: [1] > 100 µM | [2] > 100 µM | [3] > 100 µM | [5] > 100 µM | [20] > 100 µM | [6] > 100 µM | [7] > 100 µM | [8] > 100 µM | [9] > 100 µM | [10] > 100 µM | [11] > 100 µM | [12] > 100 µM | [14] > 100 µM | [15] > 100 µM | [16] > 100 µM | [17] > 100 µM | [18] > 100 µM | [19] > 100 µM

CC(CC(C)[C@H]1CCC2[C@H]3C(CC[C@@]21C)[C@@]1(C)CCC(O)C[C@H]1C[C@@H]3O)C(=O)O (stereo partly specified)
inactive: [1] > 100 µM | [2] > 100 µM | [3] > 100 µM | [4] > 100 µM | [5] 66.2 µM | [20] > 100 µM | [6] > 100 µM | [7] > 100 µM | [8] > 100 µM | [9] > 100 µM | [10] > 100 µM | [11] > 100 µM | [13] > 100 µM | [14] > 100 µM | [15] > 100 µM | [16] > 100 µM | [17] > 100 µM | [18] > 100 µM | [19] > 100 µM

CC1=C(C#N)c2nc3ccccc3n2C(=O)C1(C)CCO (stereo unspecified)
inactive: [1] > 100 µM | [3] > 100 µM | [4] > 100 µM | [5] > 100 µM | [6] > 100 µM | [7] > 100 µM | [8] > 100 µM | [9] > 100 µM | [10] > 100 µM | [11] > 100 µM | [12] > 100 µM | [13] > 100 µM | [14] > 100 µM | [15] > 100 µM | [16] > 100 µM | [17] > 100 µM | [18] > 100 µM | [19] > 100 µM

CCc1nc(N)c2nc(-c3ccc(C#N)cc3)oc2n1
inactive: [1] > 100 µM | [2] > 100 µM | [3] > 100 µM | [4] > 100 µM | [5] > 100 µM | [20] > 100 µM | [6] > 100 µM | [7] > 100 µM | [8] > 100 µM | [9] > 100 µM | [10] > 100 µM | [13] > 100 µM | [14] > 100 µM | [15] > 100 µM | [16] > 100 µM | [17] > 100 µM | [18] > 100 µM | [19] > 10 µM
